Substitutions are numbered along the chain they refer to. Structures can show the parent of a compound that is named as a salt.
Assays:
[1] = target: T1, MRGPRX2-WT (wild-type MRGPRX2 receptor) (Homo sapiens, UniProt Q96LB1); test: Primary HTS, Ca2+ mobilization (fluorescence ratio, B-score) in HEK293-Gα15 cells stably expressing wild-type MRGPRX2; type: cell-based; settings: 10 μM compound
T1 construct: expressed in transfected cells
T1 sequence (Q96LB1 1-330): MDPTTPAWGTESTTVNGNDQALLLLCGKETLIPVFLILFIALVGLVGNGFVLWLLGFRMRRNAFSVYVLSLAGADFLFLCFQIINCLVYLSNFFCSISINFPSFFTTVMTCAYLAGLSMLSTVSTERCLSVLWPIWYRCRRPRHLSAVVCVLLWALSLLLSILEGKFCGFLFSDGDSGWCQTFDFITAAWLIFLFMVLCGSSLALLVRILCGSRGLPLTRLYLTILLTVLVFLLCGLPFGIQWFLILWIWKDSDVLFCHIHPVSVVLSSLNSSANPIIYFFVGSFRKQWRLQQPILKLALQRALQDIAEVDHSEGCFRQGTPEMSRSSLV
Description: (§1) We performed an experimental HTS on the Johns Hopkins Drug Library, which includes 1,811 (57%) FDA-approved drugs among 3,456 total compounds (28% of all known drugs worldwide) ([15]). We performed the HTS at the Johns Hopkins University ChemBioCORE Facility and employed HEK293-Gα15 cell lines that stably expressed MRGPRX2 protein.
(§2) We utilized 10 μM compounds (each compound was tested in triplicate) and calculated the compound effect using the signal-to-background fluorescence ratio (see Supplementary Methods).
(§3) In the HTS, we determined MRGPRX2 activation by a Ca^2+ mobilization assay that recorded a fluorescence change by utilizing a Functional Drug Screening System (FDSS 6000; Hamamatsu); we evaluated the compound effect using the calculated fluorescence ratio. We further applied the B-score normalization, which provided robust corrections for variation in fluorescence ratio ([22]).
(§4) We performed an experimental high-throughput screening (HTS) on the Johns Hopkins Drug Library (JHDL), which includes 1,811 (57%) FDA-approved drugs among 3,456 total compounds (28% of all known drugs worldwide). The remaining compounds in JHDL are catalogued in one or more of the resources below: British Approved Names (BAN); Dénominations Communes Françaises (DCF); International Nonproprietary Names (INN); Japanese Adopted Names (JAN); MI (Merck Index); National Formulary drug name (NF); and United States Accepted Names (USAN). The JHU drug library is stocked in 96 well plates at 10 mM in 100% DMSO and stored at -80 °C. We used a final concentration of 10 uM for each compound and DMSO concentration of 0.1% (tested in triplicate). […] We evaluated compound effect using the calculated fluorescence ratio. We further calculated B-scores, which are a relative potency score similar to Z scores in that they are the ratio of an adjusted raw value in the numerator to a measure of variability in the denominator.

[2] = target: T2, MRGPRX2-MUT (MRGPRX2 N62S mutation) (Homo sapiens, UniProt Q96LB1, N62S); test: Primary HTS, Ca2+ mobilization (fluorescence ratio, B-score) in HEK293-Gα15 cells stably expressing the MRGPRX2 N62S mutation; type: cell-based; settings: for B-scores (MUT): 10 μM compound, MRGPRX2-MUT (N62S) cells; for Change of B-scores (%): 10 μM
T2 construct: expressed in transfected cells
T2 sequence (Q96LB1 1-330 N62S): T1 sequence (Q96LB1 1-330) with N62S
Description: as §1, §2, §3, §4

[3] = MRGPRX2-MUT versus MRGPRX2-WT cells, Supplementary Table 2
[4] = MRGPRX2-MUT in comparison to MRGPRX2-WT cells, Supplementary Table 1
[5] = MRGPRX2-MUT in comparison to MRGPRX2-WT cells, Table 1

| SMILES | B-scores (WT) ([1]; Supplementary Table 2) | B-scores (MUT) ([2]; Supplementary Table 2) | Change of B-scores (%) [2, 3] [%] | B-scores (WT) ([1]; Supplementary Table 1) | B-scores (WT) ([1]; Table 1) | B-scores (MUT) ([2]; Supplementary Table 1) | B-scores (MUT) ([2]; Table 1) | Change of B-scores (%) [2, 4] [%] | Change of B-scores (%) [2, 5] [%] |
| --- | --- | --- | --- | --- | --- | --- | --- | --- | --- |
| O=C(O)c1cn(C2CC2)c2cc(N3CCNCC3)c(F)cc2c1=O [Ciprofloxacin] | 7.33 | 1.91 | -74 | – | – | – | – | – | – |
| Cl.NC1CCN(c2c(F)cc3c(=O)c(C(=O)O)cn(C4CC4)c3c2Cl)C1 (centres unmarked) [Clinafoxacin Hydrochloride] | – | – | – | 26.08 | 26.08 | 0.92 | 0.92 | -96.48 | -96.48 |
| CN(C)CCCN1c2ccccc2CCc2ccc(Cl)cc21 [Clomipramine Hydrochloride] | 30.29 | 2.17 | -92.83 | 30.29 | 30.29 | 2.17 | 2.17 | -92.83 | -92.83 |
| C=C[C@@]1(C)CC(=O)[C@]2(O)[C@@]3(C)[C@@H](O)CCC(C)(C)[C@@H]3[C@H](O)[C@H](OC(C)=O)[C@@]2(C)O1 [Colforsin] | – | – | – | 21.10 | – | 0.76 | – | -96.40 | – |
| C[C@@H](Oc1cc(-c2cnn(C3CCNCC3)c2)cnc1N)c1c(Cl)ccc(F)c1Cl [Crizotinib] | – | – | – | 22.06 | 22.06 | – | -0.44 | -101.99 | -101.99 |
| CN(C)CCC=C1c2ccccc2C=Cc2ccccc21 [Cyclobenzaprine Hydrochloride] | 16.49 | 1.22 | -92.62 | – | – | – | – | – | – |
| CN1CCC(=C2c3ccccc3C=Cc3ccccc32)CC1 [Cyproheptadine Hydrochloride] | – | – | – | 41.66 | 41.66 | 2.29 | 2.29 | -94.50 | -94.50 |
| CO[C@@H](C(=O)N1Cc2n[nH]c(NC(=O)c3ccc(N4CCN(C)CC4)cc3)c2C1)c1ccccc1 [Danusertib] | – | – | – | 20.37 | 20.37 | 0.61 | 0.61 | -97.00 | -97.00 |
| COc1cccc2c1C(=O)c1c(O)c3c(c(O)c1C2=O)C[C@@](O)(C(C)=O)C[C@@H]3O[C@H]1C[C@H](N)[C@H](O)[C@H](C)O1 [Daunorubicin] | 8.85 | 37.13 | 319.41 | – | – | – | – | – | – |
| CNCCCN1c2ccccc2CCc2ccccc21 [Desipramine Hydrochloride] | 7.48 | -2.96 | -139.62 | – | – | – | – | – | – |
| CNCCCN1c2ccccc2CCc2ccccc21 [Desipramine] | 13.96 | 1.19 | -91.45 | – | – | – | – | – | – |
| CN(C)CC[C@@H](c1ccc(Cl)cc1)c1ccccn1 [Dexchlorpheniramine Maleate] | 24.82 | 0.56 | -97.76 | 24.82 | 24.82 | 0.56 | 0.56 | -97.76 | -97.76 |
| Br.COc1ccc2c(c1)[C@]13CCCC[C@@H]1[C@H](C2)N(C)CC3.O [Dextromethorphan Hydrobromide Monohydrate] | – | – | – | 23.02 | – | 54.88 | – | 138.39 | – |

Reference: article PMC9635925, “Biological screening of a unique drug library targeting MRGPRX2” (Frontiers in Immunology, 2022)
